According to patent US9446127B2, “Compositions including androgen receptor degradation (ARD) enhancers and methods of prophylactic or therapeutic treatment of skin disorders and hair loss” (AndroScience Corporation, priority 2007, dated 2016):
Several values for one entry are separate records, joined by “and”; a condition that tells them apart may be missing. Identical values can stand only once.

How the values were obtained:
acne-affected skin = assay: Topical treatment of acne in human volunteers; type: in vivo
Experimental: In this example, human subjects were successfully treated for acne by topical administration of a cream containing the compound ASC-J15 or ASC-J9, which were shown in the previous examples to ameliorate the effects of the androgen receptor-activated pathway, specifically by inducing degradation of the androgen receptor. A basic carrier formulation was prepared by mixing two solutions: (1) a water-based solution containing aristoflex avc, Osmocide, Tween 20, and water; and (2) an oil-based solution containing isopropyl myristate, coconut dienthanolamine, ethylparaben, isobutylparaben, methylparaben, and propylparaben. […]
Male and female human volunteers ranging in age from 15 years to 52 years were treated by topical application of the test compounds to the acne-affected skin. Subjects were asked to apply the cream to the acne-affected areas twice a day (once in the morning and once in the evening). […] The results are given in Table 2, and a representative result (photo pictures) from one volunteer is depicted in FIG. 14. FIG. 14A depicts the volunteer's forehead and FIG. 14B depicts the volunteer's back.

androgen receptor (AR) = molecular target: T1, androgen receptor (AR) (Homo sapiens, UniProt P10275, T878A); assay: Specificity Western blot in LNCaP cell lysates, AR; type: cell-based; details: 1 or 5 micromolar, 24 hours, presence or absence of DHT
T1 construct: endogenous in cells; host or cells: LNCaP
T1 sequence (P10275 1-920 T878A): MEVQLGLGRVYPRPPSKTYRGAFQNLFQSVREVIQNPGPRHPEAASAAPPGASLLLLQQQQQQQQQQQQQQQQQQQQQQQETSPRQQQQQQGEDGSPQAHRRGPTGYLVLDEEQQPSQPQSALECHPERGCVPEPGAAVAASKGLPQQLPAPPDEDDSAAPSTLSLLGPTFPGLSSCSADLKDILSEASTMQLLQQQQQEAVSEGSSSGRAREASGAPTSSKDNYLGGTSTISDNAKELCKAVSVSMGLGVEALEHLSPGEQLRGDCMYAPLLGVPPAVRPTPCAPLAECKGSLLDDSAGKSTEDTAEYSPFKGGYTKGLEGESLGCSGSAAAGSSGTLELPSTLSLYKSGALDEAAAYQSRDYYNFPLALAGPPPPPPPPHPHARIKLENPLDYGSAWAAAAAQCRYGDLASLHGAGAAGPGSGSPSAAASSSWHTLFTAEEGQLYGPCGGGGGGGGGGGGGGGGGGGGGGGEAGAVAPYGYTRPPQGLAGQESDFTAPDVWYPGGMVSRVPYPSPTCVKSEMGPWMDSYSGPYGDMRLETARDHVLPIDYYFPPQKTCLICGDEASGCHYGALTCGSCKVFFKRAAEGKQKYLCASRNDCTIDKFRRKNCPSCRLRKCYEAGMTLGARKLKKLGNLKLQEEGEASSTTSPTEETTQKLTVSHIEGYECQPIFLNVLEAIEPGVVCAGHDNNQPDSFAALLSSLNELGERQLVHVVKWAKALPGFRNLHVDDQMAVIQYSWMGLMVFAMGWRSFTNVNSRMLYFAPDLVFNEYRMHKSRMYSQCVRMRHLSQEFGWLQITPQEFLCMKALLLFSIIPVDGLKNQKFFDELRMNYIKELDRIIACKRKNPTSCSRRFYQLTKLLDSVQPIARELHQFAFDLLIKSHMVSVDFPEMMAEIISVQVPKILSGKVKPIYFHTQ
Experimental: Human prostate cancer LNCaP cells and T47D cells were plated at a density of 7×10^5 cells per 60 millimeter tissue culture dish in […] medium containing 10% FBS. The medium was changed to RPMI or DME medium containing 10% charcoal-stripped serum 24 hours later to deplete cellular androgens or estrogens. After another 24 hours, treatment with the test compounds began. The test dose of ASC-J9 was 1, and 5 and micromolar. LNCap cells also received dihydrotestosterone (DHT) (3 nanomolar). Control cells received a corresponding amount of the vehicle, dimethylsulfoxide (DMSO) (<0.04%) for an equivalent exposure time. Cells were incubated with ASC-J9 for 24 hours, and were lysed in 250 microliters of 1×SDS/PAGE loading buffer. Approximately 40 micrograms of total cellular protein was loaded in each lane of a pre-cast gel (NuPAGE, Invitrogen). Protein separation and transfer were performed following the manufacturer's instructions.
For the LNCaP cell lysates, androgen receptor (AR) protein was visualized by incubating the resultant membranes with an anti-AR antibody (BD-PharMingen), followed by chemiluminescence detection (ECL Plus, Amersham). […] The resultant protein signals were quantified using densitometry and NIH ImageJ software.

[1] = test system: testosterone-induced hair growth suppression; assay: Testosterone-induced alopecia model, hair re-growth; type: in vivo, C57BL/6J mice; details: testosterone mornings
Experimental: C57BL/6J mice were used in this animal model for hair loss and regrowth (Uno et al. (1990) J. Cutaneous Aging & Cosm. Derm., 1:193, which is incorporated by reference in its entirety herein). Six-week-old male mice (6 to 7 animals per group) were shaved with an electric clipper, and then treated with a hair-removal cream for 1 to 2 minutes. […] One day after hair removal, a first group of animals each received 100 microliters of a 1% testosterone solution in ethanol, applied topically to the shaved area, once each morning for twenty consecutive days. A second group of animals each received 100 microliters of vehicle (ethanol) alone, applied topically to the shaved area, once each morning for twenty consecutive days. The first group of mice (testosterone-treated) were divided further into a control group and a treatment group. Also beginning one day after hair removal, each mouse in the control group received 100 microliters of a control solution (60% ethanol, 20% propylene glycol, and 20% water) and each mouse in the treatment group received 100 microliters of the test compound, ASC-J9 (0.02% in the same 60% ethanol, 20% propylene glycol, and 20% water solution), applied topically to the shaved area, once each afternoon for twenty consecutive days. Hair re-growth in the shaved areas was observed and photographed at 0, 4, 8, 11 and 14 days after beginning of the topical treatments.

## COc1ccc(C=CC(=O)C=C(O)C=Cc2ccc(OC)c(OC)c2)cc1OC [ASC-J9, 5-hydroxy-1,7-bis(3,4-dimethoxyphenyl)-1,4,6-heptatrien-3-one]
acne-affected skin; topical cream 1 micromolar, one line per subject (age, sex, frequency in Table 2)
  Recovery Time: 2 weeks and 1 week weeks
acne-affected skin; topical cream 2.5 micromolar, twice a day, subject 24
  Recovery Time: 1 week
acne-affected skin; topical, 2.5 micromolar forehead (FIG. 14A), 625 μM back (FIG. 14B)
  skin condition of acne-affected male volunteers (photographs): visible improvement to skin condition
Androgen receptor (AR)
  cellular concentration of AR: significantly decreased
[1]; 0.02% topical afternoons, day 8 to day 17
  hair re-growth in shaved areas: rapid re-growth of hair
[1]; topical afternoons, after 20 days
  hair re-growth in shaved areas: fully re-growth of hair
